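These data come from cells grown in 96-well plates and exposed to compound for 48 hours at five concentrations. GI50 is the concentration that inhibits growth by half.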 Calls of active or inactive are those of the source. No stated cut-off is given here; in the data, active = GI50 up to about 1.1 µM and inactive = higher. Square brackets hold non-standard residues; d marks the D form. Residues, ends and D or L forms follow the SMILES beside them. Peptide text beside a SMILES is read from it. *: point of attachment. Boc = CC(C)(C)OC(=O)*
Experiments:
Test in all cases: NCI tumour cell line growth inhibition, 48 h
BT-549 = tested on: BT-549
Hs-578T = tested on: Hs-578T
MDA-N = tested on: MDA-N
DMS-114 = tested on: DMS-114
HOP-18 = tested on: HOP-18
LXFL 529 = tested on: LXFL 529
M19-MEL = tested on: M19-MEL
SNB-78 = tested on: SNB-78

Row | SMILES | GI50 (BT-549) | GI50 (Hs-578T) | GI50 (MDA-N) | GI50 (DMS-114) | GI50 (HOP-18) | GI50 (LXFL 529) | GI50 (M19-MEL) | GI50 (SNB-78)
1 | c1ccc(-c2ccc(/N=N/N3CCCC3)cc2)cc1 | > 100 µM (inactive) | > 100 µM (inactive) | > 100 µM (inactive) |  |  |  |  | 
2 | COc1ccccc1N1C(=O)/C(=C\c2cc(OC)c(OC)c(OC)c2)S(=O)(=O)C1c1ccccc1 (centres undefined) | 30.5 µM (inactive) | 32.7 µM (inactive) | 18.4 µM (inactive) |  |  |  |  | 
3 | O=C1Nc2cccc(C(F)(F)F)c2/C1=N/Nc1ccccc1[N+](=O)[O-] | > 100 µM (inactive) | 27.3 µM (inactive) | 17.7 µM (inactive) |  |  |  |  | 
4 | CC(=O)/N=C1/N(/C=C2\C(=O)Oc3ccccc3C2=O)C(=O)/C(=C/c2ccccc2Cl)N1C |  | 4.29 µM (inactive) | > 100 µM (inactive) |  |  |  |  | 
5 | COc1cc2c(cc1NC(=O)c1ccccc1)c1c(n2S(=O)(=O)c2ccccc2)CCN(S(=O)(=O)c2ccccc2)C1 | > 100 µM (inactive) | > 100 µM (inactive) |  |  |  |  |  | 
6 | Cc1cccc(-n2c(N)c(-c3nc4ccccc4[nH]3)sc2=S)c1 |  |  |  | 22.8 µM (inactive) | 47.3 µM (inactive) | 21 µM (inactive) | 25.8 µM (inactive) | 
7 | CC12CC(=O)NN=C1c1ccccc1C2 (centres undefined) |  |  |  | > 100 µM (inactive) |  |  | > 100 µM (inactive) | > 100 µM (inactive)
8 | O=[N+]([O-])c1ccc2sc(/C=N/c3ccccn3)cc2c1 | 85.1 µM (inactive) | 47.6 µM (inactive) | > 100 µM (inactive) |  |  |  |  | 
9 | COc1cc2c[n+](C)c3c4cc(OC)c(OC)cc4c(OC)cc3c2cc1OC | 3.92 µM (inactive) | 1.44 µM (inactive) | 6.32 µM (inactive) |  |  |  |  | 
10 | Cc1cccc(/N=N/c2ccc(O)c(CN(C)C)c2)c1 | 17.2 µM (inactive) | 16 µM (inactive) | 27.3 µM (inactive) |  |  |  |  | 
11 | CNN1C(=O)c2c(N)c(C#N)c(-c3ccccc3)c(-c3ccccc3)c2C1=O | > 100 µM (inactive) | 70.1 µM (inactive) | > 100 µM (inactive) |  |  |  |  | 
12 | Nc1nc(N)c(Cn2ccnc2)c(O)n1 | > 100 µM (inactive) | > 100 µM (inactive) | > 100 µM (inactive) |  |  |  |  | 
13 | Cc1nc2c(=O)n(-c3ccccc3)c(=O)n(-c3ccccc3)c2o1 | > 100 µM (inactive) | > 100 µM (inactive) | > 100 µM (inactive) |  |  |  |  | 
14 | COc1ccc(Cc2ccc3nc(O)cc(C)c3c2)cc1S(=O)(=O)O | > 100 µM (inactive) | > 100 µM (inactive) | > 100 µM (inactive) |  |  |  |  | 
15 | O=C(CC(=O)Nc1ccccc1Cl)NNC(Sc1ccccc1)c1cc(/N=N/c2ccc(Br)cc2)ccc1O (centres undefined) | 1.66 µM (inactive) | 3.13 µM (inactive) | 2.06 µM (inactive) |  |  |  |  | 
16 | NC(=S)N/N=C(/CCN1CCCC1)CC(C1=C(O)C2=CCCCC2OC1=O)c1ccccc1 (centres undefined) |  |  |  |  | > 100 µM (inactive) | > 100 µM (inactive) | > 100 µM (inactive) | > 100 µM (inactive)
17 | COC(=O)C(=NNc1ccccc1[N+](=O)[O-])C(=O)OC |  |  |  |  | > 100 µM (inactive) | > 100 µM (inactive) | > 100 µM (inactive) | 
18 | COC(=O)C(Cc1c[nH]c2ccccc12)NC(=O)C(Cc1c[nH]c2ccccc12)NC(=O)C(Cc1c[nH]c2ccccc12)NC(=O)C(Cc1c[nH]c2ccccc12)NC(=O)OC(C)(C)C (centres undefined) (Boc-WWWW-OMe; configuration not given here) | 17.9 µM (inactive) |  | 18.5 µM (inactive) |  |  |  |  | 
19 | N=C(N)NS(=O)(=O)c1ccc(NC(=O)c2ccc3nc4ccccc4c(Nc4ccc(S(=O)(=O)N=C(N)N)cc4)c3c2)cc1 | > 100 µM (inactive) | > 100 µM (inactive) | > 100 µM (inactive) |  |  |  |  | 
20 | N=C(N)NCCC[C@H]1NC(=O)[C@@H](CCC(=O)O)NC(=O)[C@@H](CC(=O)O)NC(=O)[C@@H](CCC(=O)O)NC(=O)[C@H](Cc2c[nH]c3ccccc23)NC1=O (cyclo(W[dE][dD][dE][dR])) | > 7.5 µM (inactive) | > 7.5 µM (inactive) |  |  |  |  |  | 
21 | CCOC(=O)C1CC(C(=O)c2ccccc2)N2c3ccccc3-c3ccccc3C12 (centres undefined) | 57.3 µM (inactive) | 25.9 µM (inactive) | > 100 µM (inactive) |  |  |  |  | 
22 | O=C(O)CN1CCNCCN(CC(=O)O)CCN(CC(=O)O)CCNCC1 | > 100 µM (inactive) | > 100 µM (inactive) | > 100 µM (inactive) |  |  |  |  | 
23 | CN(C)/C=N\c1c(Br)cc(Br)c2nonc12 |  | 66.4 µM (inactive) | > 100 µM (inactive) |  |  |  |  | 
24 | CC1(C)C2CCC(N)(C2)C1N (centres undefined) | > 100 µM (inactive) |  | > 100 µM (inactive) |  |  |  |  | 
25 | CC1=CC(O)C(C(O)(C(F)(F)F)C(F)(F)F)C(C)(C)C1 (centres undefined) | > 10 µM (inactive) | > 10 µM (inactive) | > 10 µM (inactive) |  |  |  |  | 
26 | COc1cc2cccc(/N=C\c3cccc(OC)c3OC(C)C)c2cc1OC |  |  |  | 17 µM (inactive) |  | 14.7 µM (inactive) | 21.3 µM (inactive) | 44.7 µM (inactive)
27 | CC(C)(C)c1cc(C(C)(C)C)c2c(c1O)OC(=O)CS2 | 8.32 µM (inactive) | 2.84 µM (inactive) | 3.67 µM (inactive) |  |  |  |  | 
28 | O=C(CN1C(=O)c2ccccc2C1=O)OCC1CCCN2CCCCC12 (centres undefined) | > 100 µM (inactive) | > 100 µM (inactive) | > 100 µM (inactive) |  |  |  |  | 
29 | S=P(C1CCCCC1)(C1CCCCC1)C(c1cccnc1)N1CCCC1 (centres undefined) | 18.5 µM (inactive) | 35.4 µM (inactive) | 20.1 µM (inactive) |  |  |  |  | 

From ChEMBL document CHEMBL1201862, “PubChem BioAssay data set” (2004)
